Measurements as given in ChEMBL document CHEMBL5442175, “EUbOPEN Chemogenomics Library - PDSP Secondary Binding” (2024).
Counter-ions that a name gives are not always drawn.

Legend:
[1] = target: T1, 5-hydroxytryptamine receptor 1A (Homo sapiens, UniProt P08908); test: (§1) PDSP Secondary Binding target: HTR1A - Compounds are tested at 10 uM concentration, plate are incubated at room temperature in the dark for 90 minutes. Reaction are stopped by vacuum filtration onto 0.3% polyethyleneimine soaked filter mats using Filtermate harvester. Scintillation cocktail is then melted onto microwave-dried filters on a hot plate and the radio activity is counted in Microbia counter.
T1 sequence (P08908 whole entry): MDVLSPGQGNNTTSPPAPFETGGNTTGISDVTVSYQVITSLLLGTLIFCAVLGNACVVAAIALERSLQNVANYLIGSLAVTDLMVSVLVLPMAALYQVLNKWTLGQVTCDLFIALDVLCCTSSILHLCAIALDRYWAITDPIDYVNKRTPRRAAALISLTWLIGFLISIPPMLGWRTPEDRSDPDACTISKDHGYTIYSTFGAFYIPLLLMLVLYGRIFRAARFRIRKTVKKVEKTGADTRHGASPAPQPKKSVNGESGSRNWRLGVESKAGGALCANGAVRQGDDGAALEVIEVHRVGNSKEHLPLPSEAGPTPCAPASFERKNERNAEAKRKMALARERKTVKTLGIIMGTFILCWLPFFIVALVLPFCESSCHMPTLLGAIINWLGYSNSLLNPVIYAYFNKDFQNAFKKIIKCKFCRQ

[2] = target: 5-hydroxytryptamine receptor 5A (Homo sapiens, UniProt P47898); test: as §1, with “HTR5A” for “HTR1A”
[3] = target: 5-hydroxytryptamine receptor 7 (Homo sapiens, UniProt P34969); test: as §1, with “HTR7” for “HTR1A”
[4] = target: Sigma intracellular receptor 2 (Homo sapiens, UniProt Q5BJF2); test: as §1, with “TMEM97” for “HTR1A”
D(4) dopamine receptor = target: T2, D(4) dopamine receptor (Homo sapiens, UniProt P21917); test: as §1, with “DRD4” for “HTR1A”
T2 sequence (P21917 whole entry): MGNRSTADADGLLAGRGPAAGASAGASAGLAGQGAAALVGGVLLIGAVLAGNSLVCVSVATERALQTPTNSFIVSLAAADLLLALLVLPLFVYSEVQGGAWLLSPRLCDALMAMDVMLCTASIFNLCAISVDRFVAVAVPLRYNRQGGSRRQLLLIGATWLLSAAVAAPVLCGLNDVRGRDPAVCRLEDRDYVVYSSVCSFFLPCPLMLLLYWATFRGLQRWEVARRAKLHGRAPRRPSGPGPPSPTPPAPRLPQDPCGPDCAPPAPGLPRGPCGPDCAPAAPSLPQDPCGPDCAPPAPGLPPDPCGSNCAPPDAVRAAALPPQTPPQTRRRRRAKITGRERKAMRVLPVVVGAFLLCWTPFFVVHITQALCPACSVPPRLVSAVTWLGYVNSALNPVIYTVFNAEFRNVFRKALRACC

[5] = target: Sigma non-opioid intracellular receptor 1 (Homo sapiens, UniProt Q99720); test: as §1, with “SIGMAR1” for “HTR1A”
D(3) dopamine receptor = D(3) dopamine receptor (Homo sapiens, UniProt P35462); test: as §1, with “DRD3” for “HTR1A”
[6] = target: 5-hydroxytryptamine receptor 1B (Homo sapiens, UniProt P28222); test: as §1, with “HTR1B” for “HTR1A”
[7] = target: 5-hydroxytryptamine receptor 1D (Homo sapiens, UniProt P28221); test: as §1, with “HTR1D” for “HTR1A”
[8] = target: T3, 5-hydroxytryptamine receptor 2C (Homo sapiens, UniProt P28335); test: as §1, with “HTR2C” for “HTR1A”
T3 sequence (P28335 whole entry): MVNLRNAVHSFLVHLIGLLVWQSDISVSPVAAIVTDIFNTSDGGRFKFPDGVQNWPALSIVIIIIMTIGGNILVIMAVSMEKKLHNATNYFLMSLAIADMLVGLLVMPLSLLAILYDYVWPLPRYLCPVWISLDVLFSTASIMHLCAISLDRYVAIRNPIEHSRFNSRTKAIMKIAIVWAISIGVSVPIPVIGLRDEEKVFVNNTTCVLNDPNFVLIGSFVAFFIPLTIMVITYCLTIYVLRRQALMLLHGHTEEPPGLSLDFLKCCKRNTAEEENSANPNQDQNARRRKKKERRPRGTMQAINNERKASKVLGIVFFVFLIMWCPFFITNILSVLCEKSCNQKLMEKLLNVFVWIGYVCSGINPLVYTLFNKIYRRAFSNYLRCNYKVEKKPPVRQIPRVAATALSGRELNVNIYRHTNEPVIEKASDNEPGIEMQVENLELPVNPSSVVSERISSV

[9] = target: 5-hydroxytryptamine receptor 2A (Homo sapiens, UniProt P28223); test: as §1, with “HTR2A” for “HTR1A”
[10] = target: Muscarinic acetylcholine receptor M3 (Homo sapiens, UniProt P20309); test: as §1, with “CHRM3” for “HTR1A”
Sequence of Muscarinic acetylcholine receptor M3 (P20309 whole entry): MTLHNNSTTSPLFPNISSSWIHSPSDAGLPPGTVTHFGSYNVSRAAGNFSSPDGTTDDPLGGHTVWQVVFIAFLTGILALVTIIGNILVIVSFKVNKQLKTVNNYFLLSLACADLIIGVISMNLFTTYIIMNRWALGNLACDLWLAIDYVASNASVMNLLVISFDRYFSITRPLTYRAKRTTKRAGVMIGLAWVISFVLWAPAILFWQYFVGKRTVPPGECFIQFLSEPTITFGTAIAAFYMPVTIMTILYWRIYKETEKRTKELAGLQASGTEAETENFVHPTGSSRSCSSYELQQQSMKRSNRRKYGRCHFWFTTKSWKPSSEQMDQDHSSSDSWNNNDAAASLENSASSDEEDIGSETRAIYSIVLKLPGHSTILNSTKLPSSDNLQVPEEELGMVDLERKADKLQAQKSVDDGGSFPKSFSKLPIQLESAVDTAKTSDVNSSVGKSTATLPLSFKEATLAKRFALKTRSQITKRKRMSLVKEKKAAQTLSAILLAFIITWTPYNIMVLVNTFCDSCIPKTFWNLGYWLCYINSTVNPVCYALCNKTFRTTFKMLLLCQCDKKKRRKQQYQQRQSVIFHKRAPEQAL

Sequence of 5-hydroxytryptamine receptor 1D (P28221 whole entry): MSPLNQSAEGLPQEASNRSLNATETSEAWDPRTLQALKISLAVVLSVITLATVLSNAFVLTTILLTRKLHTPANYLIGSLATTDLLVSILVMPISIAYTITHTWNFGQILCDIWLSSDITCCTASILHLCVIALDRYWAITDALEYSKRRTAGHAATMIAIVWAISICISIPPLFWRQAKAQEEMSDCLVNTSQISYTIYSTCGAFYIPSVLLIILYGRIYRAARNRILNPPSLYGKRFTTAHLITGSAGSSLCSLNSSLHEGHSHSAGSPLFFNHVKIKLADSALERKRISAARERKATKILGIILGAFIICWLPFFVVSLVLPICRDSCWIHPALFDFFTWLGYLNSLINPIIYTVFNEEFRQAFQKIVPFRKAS
Sequence of Sigma intracellular receptor 2 (Q5BJF2 whole entry): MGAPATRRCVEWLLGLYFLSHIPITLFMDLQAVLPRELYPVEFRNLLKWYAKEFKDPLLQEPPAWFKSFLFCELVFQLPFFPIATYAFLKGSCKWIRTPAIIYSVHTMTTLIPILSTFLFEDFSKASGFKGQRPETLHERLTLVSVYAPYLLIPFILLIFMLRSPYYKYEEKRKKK
Sequence of D(3) dopamine receptor (P35462 whole entry): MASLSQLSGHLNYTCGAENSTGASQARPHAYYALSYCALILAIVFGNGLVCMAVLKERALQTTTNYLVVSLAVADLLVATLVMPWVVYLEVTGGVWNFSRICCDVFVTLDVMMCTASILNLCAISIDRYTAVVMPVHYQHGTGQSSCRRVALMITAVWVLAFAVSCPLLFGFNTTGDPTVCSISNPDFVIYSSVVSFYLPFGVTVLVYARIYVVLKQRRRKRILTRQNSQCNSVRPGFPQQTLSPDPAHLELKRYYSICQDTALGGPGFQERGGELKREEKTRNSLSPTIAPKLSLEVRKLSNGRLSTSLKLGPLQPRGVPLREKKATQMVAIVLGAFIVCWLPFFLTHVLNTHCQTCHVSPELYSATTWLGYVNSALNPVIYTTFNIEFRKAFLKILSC
Sequence of 5-hydroxytryptamine receptor 1B (P28222 whole entry): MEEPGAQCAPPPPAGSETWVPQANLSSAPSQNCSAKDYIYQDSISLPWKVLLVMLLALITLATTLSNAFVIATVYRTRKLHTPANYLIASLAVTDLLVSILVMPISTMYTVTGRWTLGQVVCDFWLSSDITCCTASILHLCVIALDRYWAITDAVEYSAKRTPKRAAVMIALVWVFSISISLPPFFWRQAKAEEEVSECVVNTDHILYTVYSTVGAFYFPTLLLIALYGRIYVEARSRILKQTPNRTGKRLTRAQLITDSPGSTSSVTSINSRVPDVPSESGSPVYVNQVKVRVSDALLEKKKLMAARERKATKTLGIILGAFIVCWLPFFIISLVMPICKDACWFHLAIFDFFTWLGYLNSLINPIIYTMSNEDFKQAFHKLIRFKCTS
Sequence of 5-hydroxytryptamine receptor 5A (P47898 whole entry): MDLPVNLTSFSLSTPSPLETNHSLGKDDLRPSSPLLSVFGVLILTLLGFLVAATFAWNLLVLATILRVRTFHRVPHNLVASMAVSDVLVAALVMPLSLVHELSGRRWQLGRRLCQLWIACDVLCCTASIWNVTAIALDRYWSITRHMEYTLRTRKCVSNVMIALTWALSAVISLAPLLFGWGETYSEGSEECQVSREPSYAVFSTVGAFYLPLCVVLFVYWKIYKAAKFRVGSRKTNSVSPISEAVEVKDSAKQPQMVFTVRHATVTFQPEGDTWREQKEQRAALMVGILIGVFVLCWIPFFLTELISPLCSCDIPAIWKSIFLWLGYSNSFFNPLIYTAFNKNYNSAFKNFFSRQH
Sequence of Sigma non-opioid intracellular receptor 1 (Q99720 whole entry): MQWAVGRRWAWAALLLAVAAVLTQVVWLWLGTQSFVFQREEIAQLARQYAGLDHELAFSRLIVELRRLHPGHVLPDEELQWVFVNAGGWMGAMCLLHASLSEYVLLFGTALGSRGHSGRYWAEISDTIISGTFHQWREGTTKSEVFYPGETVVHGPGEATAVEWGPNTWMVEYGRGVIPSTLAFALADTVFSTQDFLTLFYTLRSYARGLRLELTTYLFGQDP
Sequence of 5-hydroxytryptamine receptor 7 (P34969 whole entry): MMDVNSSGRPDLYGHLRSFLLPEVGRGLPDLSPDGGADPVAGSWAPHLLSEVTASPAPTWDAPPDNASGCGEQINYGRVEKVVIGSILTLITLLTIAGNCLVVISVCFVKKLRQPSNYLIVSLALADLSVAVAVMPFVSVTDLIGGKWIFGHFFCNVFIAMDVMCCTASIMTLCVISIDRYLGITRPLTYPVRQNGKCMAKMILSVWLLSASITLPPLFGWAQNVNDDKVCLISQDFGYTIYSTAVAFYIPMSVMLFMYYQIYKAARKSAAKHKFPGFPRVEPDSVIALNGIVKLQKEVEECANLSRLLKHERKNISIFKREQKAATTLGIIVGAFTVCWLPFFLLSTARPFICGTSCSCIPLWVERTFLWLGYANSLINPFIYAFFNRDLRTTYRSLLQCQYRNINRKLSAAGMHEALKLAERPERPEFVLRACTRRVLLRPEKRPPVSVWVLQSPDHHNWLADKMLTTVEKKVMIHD
Sequence of 5-hydroxytryptamine receptor 2A (P28223 whole entry): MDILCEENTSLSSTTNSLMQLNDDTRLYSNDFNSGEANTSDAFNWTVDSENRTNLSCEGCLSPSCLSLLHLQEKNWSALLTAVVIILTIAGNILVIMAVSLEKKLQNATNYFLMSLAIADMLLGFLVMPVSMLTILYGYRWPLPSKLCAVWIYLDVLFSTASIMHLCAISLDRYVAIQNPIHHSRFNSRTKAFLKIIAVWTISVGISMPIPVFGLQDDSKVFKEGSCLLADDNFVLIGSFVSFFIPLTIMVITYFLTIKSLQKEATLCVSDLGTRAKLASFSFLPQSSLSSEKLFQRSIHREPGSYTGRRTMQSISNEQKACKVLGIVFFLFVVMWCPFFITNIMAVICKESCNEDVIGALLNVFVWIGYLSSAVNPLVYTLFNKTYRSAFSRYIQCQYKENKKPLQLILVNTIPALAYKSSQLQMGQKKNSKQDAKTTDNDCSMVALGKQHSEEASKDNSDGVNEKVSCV

Row | SMILES | Ki [1] | Ki [2] | Ki [3] | Ki [4] | Ki (D(4) dopamine receptor) | Ki [5] | Ki (D(3) dopamine receptor) | Ki [6] | Ki [7] | Ki [8] | Ki [9] | Ki [10]
1 | O=S1(=O)c2cccc3cccc(c23)N1CCCN1CCN(c2ccc(F)cc2)CC1 [FANANSERIN] | 0.518 µM | 6.73 µM | 0.744 µM | 1.32 µM | 0.0957 µM | 0.696 µM | 1.02 µM | – | – | – | – | –
2 | O=c1ccc2ccc(OCCCCN3CCN(c4cccc5sccc45)CC3)cc2[nH]1 [BREXPIPRAZOLE] | 0.0232 µM | 0.178 µM | 0.0304 µM | 0.063 µM | 0.036 µM | – | 0.0104 µM | 0.0426 µM | 0.024 µM | 0.0605 µM | 0.0183 µM | –
3 | COc1cc(-n2cnc3cc(-c4ccc(Cl)cc4)sc3c2=O)ccc1OCCN1CCCC1 | – | 0.557 µM | – | 0.185 µM | – | 0.012 µM | 0.768 µM | – | 3.56 µM | 0.893 µM | – | 4.13 µM
4 | CN1C[C@H](C(=O)N[C@]2(C)O[C@@]3(O)[C@@H]4CCCN4C(=O)[C@H](Cc4ccccc4)N3C2=O)C[C@@H]2c3cccc4[nH]cc(c34)C[C@H]21 [DIHYDROERGOTAMINE MESYLATE] | 0.0391 µM | 0.0313 µM | 0.0602 µM | 2.84 µM | 0.0328 µM | 0.604 µM | 0.034 µM | 0.108 µM | – | 0.214 µM | – | –
5 | COc1ccc(NC(=O)c2ccc(-c3ccc(-c4noc(C)n4)cc3C)cc2)cc1OCCN(C)C | – | 1.16 µM | 1.1 µM | 0.694 µM | – | 3.11 µM | – | 0.00118 µM | 0.015 µM | 0.264 µM | 0.0357 µM | –
6 | Cc1c(P(=S)(c2ccccc2)c2ccccc2)n2ccccc2[n+]1C/C=C/c1ccccc1 | – | – | – | 0.701 µM | – | 0.816 µM | – | – | – | – | 2.79 µM | 1.14 µM
7 | CCc1ccc(OCc2ccccc2C(=O)Nc2ccc3nc(C)cc(N)c3c2)cc1 | – | 2.45 µM | – | 0.7 µM | – | 2.28 µM | – | – | 2.78 µM | 0.328 µM | 0.548 µM | –
8 | COC(=O)C1=C(C)NC(C)=C(C(=O)OCCCN2CCC(c3ccccc3)(c3ccccc3)CC2)[C@H]1c1cccc([N+](=O)[O-])c1 [NIGULDIPINE] | 0.539 µM | 0.431 µM | 0.313 µM | 0.328 µM | – | 0.32 µM | 0.425 µM | 0.366 µM | – | 1.85 µM | – | 2.15 µM
9 | CN1CCCC(n2nc(Cc3ccc(Cl)cc3)c3ccccc3c2=O)CC1 (stereo unspecified) [AZELASTINE HYDROCHLORIDE] | – | – | 0.385 µM | 0.032 µM | – | 0.15 µM | 0.636 µM | 4.23 µM | 0.885 µM | – | 0.23 µM | > 10 µM
10 | C[C@H](Cc1cc2c(c(C(N)=O)c1)N(CCCO)CC2)NCCOc1ccccc1OCC(F)(F)F [SILODOSIN] | 0.047 µM | – | 0.48 µM | – | 1.58 µM | – | 0.0716 µM | 0.373 µM | 0.0917 µM | – | – | –
11 | N#Cc1ccc2[nH]cc(CCCCN3CCN(c4ccc5oc(C(N)=O)cc5c4)CC3)c2c1 [VILAZODONE HYDROCHLORIDE] | – | – | 0.794 µM | 1.09 µM | 0.824 µM | 0.0142 µM | 0.133 µM | 1.24 µM | 0.369 µM | – | – | –
